Data: article PMC4874602 (ACS Infectious Diseases, 2016)
Where two headings read alike, the source gives them in different places.

What was measured:
[1] = tested on: M. tuberculosis Erdman; format: in vivo, Mycobacterium tuberculosis; settings: BALB/c, P < 0.01
[2] = C3HeB/FeJ, single 150 mg/kg oral dose of PZA
[3] = in vivo; settings: BALB/c, mouse, po, 150 mg/kg; for half-life: t1/2, BALB/c
[4] = tested on: M. tuberculosis Erdman; format: in vivo, Mycobacterium tuberculosis; settings: C3HeB/FeJ, P < 0.01
[5] = tested on: Mycobacterium tuberculosis; settings: pH 7.0; standard laboratory culture conditions; cited from earlier work
[6] = BALB/c, single 150 mg/kg oral dose of PZA
[7] = in vivo; settings: C3HeB/FeJ, mouse, po, 150 mg/kg; for half-life: t1/2, C3HeB/FeJ
[8] = in vivo; settings: BALB/c and C3HeB/FeJ, mouse, 150 mg/kg
[9] = tested on: THP-1 cells; settings: 30 min exposure, 1 mM PZA, 0.4 mM POA
[10] = PZA 150 mg/kg, first 3 weeks of treatment
[11] = PZA 300 mg/kg vs 150 mg/kg, first 3 weeks
[12] = lesion (cellular non-necrotizing, type III), single 150 mg/kg oral dose of PZA
[13] = plasma, single 150 mg/kg oral dose of PZA
[14] = uninvolved lung, single 150 mg/kg oral dose of PZA
[15] = whole lung, single 150 mg/kg oral dose of PZA
[16] = lesion (type III), single 150 mg/kg oral dose of PZA
[17] = plasma, single 150 mg/kg oral dose of PZA, 2.5–8 h terminal
[18] = lesion (caseous necrotic granuloma, type I), single 150 mg/kg oral dose of PZA
[19] = lesion (type I), single 150 mg/kg oral dose of PZA
[20] = AUCUL/AUCplasma, uninvolved lung, single 150 mg/kg oral dose of PZA
[21] = AUCWL/AUCplasma, whole lung, single 150 mg/kg oral dose of PZA

Structure (SMILES): NC(=O)c1cnccn1 [PZA, pyrazinamide]
- change in pulmonary CFU [1, 10]: significant decrease in pulmonary CFU
- change in pulmonary CFU [1, 11]: larger decrease in CFU
- AUC8h ([2]; lesion (type I)): 351.8 µg·h/g
- AUC8h ([2]; uninvolved lung): 237.9 µg·h/g
- AUC8h ([2]; whole lung): 306.3 µg·h/g
- AUC(0-t) [3]: 346 µg·h/mL
- Kp ([3]; AUCLes/AUCplasma): 1.33
- Kp ([3]; AUCUL/AUCplasma): 0.76
- Kp ([3]; AUCWL/AUCplasma): 0.86
- Cmax [3, 12]: 146000 ng/g
- Cmax [3, 13]: 161 µg/mL
- Cmax [3, 14]: 93600 ng/g
- Cmax [3, 15]: 123000 ng/g
- half-life [3, 16]: 0.96 h
- half-life [3, 17]: 1.05 h
- half-life [3, 14]: 0.75 h
- half-life [3, 15]: 1.02 h
- Tmax [3, 16]: 0.5 h
- Tmax [3, 13]: 0.5 h
- Tmax [3, 14]: 0.5 h
- Tmax [3, 15]: 0.5 h
- change in pulmonary CFU [4, 10]: significant decrease in pulmonary CFU
- change in pulmonary CFU [4, 11]: larger decrease in CFU
- MIC [5]: > 1000 mg/mL
- AUC8h ([6]; lesion (type III)): 459.4 µg·h/g
- AUC8h ([6]; uninvolved lung): 262.8 µg·h/g
- AUC8h ([6]; whole lung): 298.6 µg·h/g
- AUC(0-t) [7]: 329 µg·h/mL
- Kp ([7]; AUCLes/AUCplasma): 1.07
- Kp ([7]; AUCUL/AUCplasma): 0.72
- Kp ([7]; AUCWL/AUCplasma): 0.93
- Cmax [7, 18]: 94700 ng/g
- Cmax [7, 13]: 87.4 µg/mL
- Cmax [7, 14]: 66200 ng/g
- Cmax [7, 15]: 76500 ng/g
- half-life [7, 19]: 2.88 h
- half-life [7, 17]: 2.6 h
- half-life [7, 14]: 3.01 h
- half-life [7, 15]: 2.82 h
- Tmax [7, 19]: 1 h
- Tmax [7, 13]: 0.75 h
- Tmax [7, 14]: 1 h
- Tmax [7, 15]: 1 h
- Tmax [8]: 0.5 to 1 h
- accumulation within THP-1 cells [9]: accumulated to a very low degree

Structure (SMILES): O=C(O)c1cnccn1 [POA, pyrazinoic acid]
- AUC8h ([2]; lesion (type I)): 75.1 µg·h/g
- AUC8h ([2]; uninvolved lung): 30.4 µg·h/g
- AUC8h ([2]; whole lung): 43.9 µg·h/g
- AUC(0-t) [3]: 127 µg·h/mL
- Kp ([3]; AUCLes/AUCplasma, lesion (type III), single 150 mg/kg oral dose of PZA): 0.78
- Kp [3, 20]: 0.31
- Kp [3, 21]: 0.42
- Cmax [3, 12]: 25000 ng/g
- Cmax [3, 13]: 42.5 µg/mL
- Cmax [3, 14]: 10300 ng/g
- Cmax [3, 15]: 14700 ng/g
- half-life [3, 16]: 0.83 h
- half-life [3, 17]: 1.24 h
- half-life [3, 14]: 0.24 h
- half-life [3, 15]: 0.24 h
- Tmax [3, 16]: 1 h
- Tmax [3, 13]: 0.5 h
- Tmax [3, 14]: 0.5 h
- Tmax [3, 15]: 0.5 h
- AUC8h ([6]; lesion (type III)): 99.5 µg·h/g
- AUC8h ([6]; uninvolved lung): 39.0 µg·h/g
- AUC8h ([6]; whole lung): 53.7 µg·h/g
- AUC(0-t) [7]: 58.7 µg·h/mL
- Kp ([7]; AUCLes/AUCplasma, lesion (type I), single 150 mg/kg oral dose of PZA): 1.28
- Kp [7, 20]: 0.52
- Kp [7, 21]: 0.75
- Cmax [7, 18]: 12500 ng/g
- Cmax [7, 13]: 14.2 µg/mL
- Cmax [7, 14]: 8300 ng/g
- Cmax [7, 15]: 9000 ng/g
- half-life [7, 19]: 12.1 h
- half-life [7, 17]: 2.4 h
- half-life [7, 14]: 3.9 h
- half-life [7, 15]: 5.13 h
- Tmax [7, 19]: 1 h
- Tmax [7, 13]: 0.75 h
- Tmax [7, 14]: 1 h
- Tmax [7, 15]: 1 h
- Tmax [8]: 0.5 to 1 h
- accumulation within THP-1 cells [9]: accumulated to a very low degree
